In US20170057917A1, “Polymorphs of Lomitapide and its Salts” (Hetero Research Foundation, priority 2014, published 2017) one finds hygroscopicity data, which are given here for one compound.

A short description of this data set: Hygroscopicity of the amorphous form. The following applies: solid amorphous form; normally amorphous Forms are hygroscopic. In kind it is physicochemical.

With `CS(=O)(=O)O.O=C(NC1CCN(CCCCC2(C(=O)NCC(F)(F)F)c3ccccc3-c3ccccc32)CC1)c1ccccc1-c1ccc(C(F)(F)F)cc1` [Amorphous Lomitapide mesylate], the hygroscopicity result is listed as “non-hygroscopic”.
